Experimental data from patent US9446087B2, “Anti-resorptive and bone building dietary supplements and methods of use” (priority 2006, dated 2016).
“And” between values parts separate entries of the source, which are not always exact repeats. Identical values can stand only once. Marks after values point to notes of the source that are not given here.

Tests used:
RANK-L [1] = assay: RANK-L gene expression (IL-1b stimulated MG63 cells, qPCR); assay type: cell-based, human; details: 3 μg/ml, stimulus alone
Procedure: Punicalagin test samples are extracted from pomegranates, including from pomegranate peels, skins, fleshy fruit, and seeds using 100% DMSO at 100 mg/ml. Particulate matter in the extraction is not removed. The punicalagin test samples are diluted in MEM without phenol red (estrogenic) and 0.1% FBS to lower background signaling to ten times the final concentrations. Final DMSO concentrations are kept below 0.2% and are kept constant during treatments. DMSO solvent control is used in the untreated group.
MG63 cells (ATCC #CRL-1472), a human-derived osteosarcoma cell line, are plated at 200,000 cells per well in a 12 well plate with phenol red free MEM at 10% FBS. The next day the media is changed to phenol red free MEM at 0.1% FBS. […]
[…] The treated cells the stimulus, IL-1b, are then allowed to incubate for 16 hours at 37° C.
After 16 hours the cells are lysed and the RNA is extracted from the cells with the RNasy purification kit (Qiagen). RNA is reverse transcribed to cDNA and quantified by qPCR using 2-step qRT-PCR reagents (Invitrogen), and 4 μL of purified RNA. Annealing temperature is 57° C. in the Stratagene Mx4000 with 1 μL of RANK-L gene specific primers in a 50 μL reaction (10 μM initial concentration; HLUX3013920, Invitrogen Inc.).
RANK-L and GAPDH gene expression Ct data are obtained. RNA is quantified with adjustments for GAPDH expression. […]

[2] = system: type IV collagenase protein (matrix metalloproteinase-9/MMP9); assay: MMP9 protein expression in IL-1B stimulated keratinocyte/fibroblast co-culture; assay type: cell-based; details: 10 ng/ml, stimulus alone; untreated 1.0
Procedure: Keratinocytes and fibroblasts were co-cultured in DMEM containing 0.5% BSA. Co-cultures were exposed to various concentrations of punicalagins (ranging from 0.1%-10%) were extracted from pomegranates. Specifically, the ability of the pomegranate extracts to inhibit type IV collagenase protein (matrix metalloproteinase-9/MMP9) expression at concentrations of 1.0 μg/ml, 10 μg/ml, and 100 μg/ml were tested. Following exposure to the pomegranate extracts, the co-culture cells were stimulated with 10 ng/ml of IL-1B for 18 hours. Following stimulation with IL-1B for 18 hours, and MMP9 concentration was determined in the media as shown below in Table 14.

[3] = system: calvaria (skull bones) from 4 day old pups; assay: Calvarial Assay to Measure Inhibition of Bone Resorption (45Ca release); assay type: cell-based, CD-1 mice
Procedure: In order to label cells of newborn mice in utero, pregnant CD-1 female mice (at timed day 15) were injected with ^45Ca (25 uCi/mouse). […] The bones were incubated at 37° C. in a 5% CO2 humidified incubator for a period of 24 hours following which they were transferred to wells containing 1 ml media with factors added (IL-1, PTH and or compounds.) The treated bones were incubated under the above conditions for a further 72 hours. […] The results were expressed as % ^45Ca release and can be further reported as T/C ratios. For some factors and compounds, modification of this procedure can be used. As most of the osteoclasts are formed in the calvaria following the preincubation period, the factors that affect osteoclast formation may have a greater effect during the preincubation period. Thus, for a number of the compounds, they were included in the preincubation media.

BMP-2 = BMP-2 Gene Expression Assay (MG-63 cells, real time PCR); assay type: cell-based, human; details: 10 μg/ml
Procedure: It is also possible to test for BMP-2 gene expression and protein expression using assays similar to those described above for testing BMP-2 promoter activity. In particular, for gene expression, the human osteosarcoma cell line, MG-63 (ATCC# CRL-1427), is maintained in phenol-red containing MEM (as recommended by ATCC) at 37° C. and 5% CO2. Twenty-four hours prior to experimentation, 3×10^5 cells are seeded in 12-well plates in phenol-red free MEM. […] After an overnight incubation, RNA is extracted using conventional trizol/guanidine isothiocyanate based lysis. The isolated RNA was digested with RNase-free DNase I to remove any DNA contamination and then reverse transcribed to cDNA using random hexamer as well as oligo(dT) primers according to the manufacturer's instructions (Stratagene). Quantitative real time PCR is performed using FAM-labeled specific primers for BMP-2 and HEX-labeled specific primers for 18S rRNA (Invitrogen). All reactions are carried out in triplicate and the relative amount of mRNAs in treated versus untreated samples is calculated using the comparative CT method established by Applied Biosystems (2001). Gene expression changes of 2-fold or greater are considered significant.

RANK-L [4] = assay: Inhibition of RANK-L production/release (IL-1b stimulated MG-63 cells, ELISA); assay type: cell-based, human
Procedure: Weigh between 150 to 250 mg of each ingredient into a 15 ml conical bottomed tube. […] For solvent control, mix 1.5 ml DMSO, 0.9 ml ethanol, and 0.6 ml water. Vortex thoroughly. Sonicate for 10 minute in water bath, room temperature. Vortex thoroughly again. Dilute ingredient stocks in fresh phenol red-free media. Human osteosarcoma cell line, MG-63 (ATCC #CRL-1427), is maintained in phenol-red containing MEM (as recommended by ATCC) at 37° C. and 5% CO2. Twenty-four hours prior to experimentation, 3×10^5 cells are seeded in 12-well plates in phenol-red free MEM. […] Stock solution of TGF-beta is 30 μg/ml (from R&D Systems, cat #100-B-001). After pretreatment incubation period, […] IL-1b (Calbiochem (catalog #407615) and stock solution at 10 μg/ml, cat #407615) were added to the cell cultures for 18 hours at 37° C. Supernatant media from the treated and stimulated cells were removed and total RANK-L proteins were measured using RANK-L ELISA (in triplicate) as described by manufacturer (from APOTECH, catalog #APO-54N-016-k101). The resulting protein quantity was compared to that of media (null) treated stimulated cells to determine percent decrease in total RANK-L protein.

BMP-2 promoter = assay: BMP2 Promoter assay (2T3-BMP2-Luciferase cells, luciferase); assay type: cell-based, murine
Neonatal murine calvaria = assay: Calvarial Assay to Measure Bone Growth; assay type: cell-based, Swiss white mice
Procedure: Neonatal murine calvaria from 4 day old Swiss white mice are excised, placed into BGJ media (Sigma), and cut in half along the midline suture. One milliliter of BGJ media supplemented with 0.1% bovine serum albumin (BSA) is added to each well of a 12 well tissue culture plate (Costar) to which the relevant factors or vehicles are added. Each half calvaria is placed on a stainless steel grid in the above media at the media/air interface. Usually 4 bones per experimental group are used. […] Factors to be tested are added on Day 0 (the day of dissection) and media is changed at 24 and 96 hours (if a 7 day assay is required). Calvaria are maintained in humidified air (5% Co2), at 37° C. Following the period of incubation, the calvaria are then removed and fixed overnight in 10% formalin. The calvaria are then decalcified in 14% EDTA overnight and are then embedded in paraffin wax. Sections are then cut, using a standard microtome, along the midline suture to reveal the coronal suture and the region posterior to this suture. Four micrometer sections were taken initially and at two sequential […] depths. Sections are placed on coated glass slides (Superfrost plus, Fisher Scientific, Pittsburgh, Pa.) and stained with hematoxylin and eosin. The total and new bone area (expressed as mm^2), suture thickness (mm), and number of cells lining the bone surface are determined in the section posterior to the […] suture. Histomorphometric analysis is performed using the Osteomeasure System (Osteometrics INC, Atlanta, Ga.).

BMP-2 protein = assay: BMP-2 Protein Expression Assay (Hu09 cells, ELISA); assay type: cell-based
Procedure: The cells are treated with different proteasome inhibitors for 24 hours. After incubation, the conditioned media is transferred into microcentrifuge tubes and centrifuged at 14,000 rpm for 2-3 minutes to remove cellular debris. The concentration of BMP-2 protein in the supernatant is then determined using the standard BMP-2 Elisa Kit (R&D ELISA KIT DBP200). Recombinant hBMP-2 (R&D) is used as a standard.

Compound: IL1B: IL-1b stimulus (Calbiochem)
- RANK-L Expression (fold increase) (RANK-L [1]): 3.3 ± 0 fold increase
- MMP9 protein expression (fold of untreated) [2]: 1.65

Compound: CC(C)Oc1ccc2c(=O)c(-c3ccccc3)coc2c1 [I, 7-isopropoxy isoflavone]
- Inhibition of Bone Resorption/Release of Ca^2+, % Release ([3]; IL-1 + 1 μg/ml): 38.00 ± 1.41 % Release
- Inhibition of Bone Resorption/Release of Calcium By Combinations of Extracts, % Release ([3]; IL-1 + 1 μg/ml): 29.75 ± 4.54 % Release
- Inhibition of Bone Resorption/Release of Ca^2+, % Release ([3]; IL-1 + 10 μg/ml): 32.50 ± 3.30 % Release
- Inhibition of Bone Resorption/Release of Calcium By Combinations of Extracts, % Release ([3]; IL-1 + 10 μg/ml): 30.25 ± 4.03 % Release
- Inhibition of Bone Resorption/Release of Ca^2+, % Release ([3]; IL-1 + 100 μ/ml): 19.25 ± 1.03^a % Release
- Inhibition of Bone Resorption/Release of Calcium By Combinations of Extracts, % Release ([3]; IL-1 ± 100 μg/ml): 17.50 ± 1.66^a % Release
- Fold Change in Gene Expression (BMP-2): No effect
- RANK-L inhibition (%) (RANK-L [4]; 10 μg/ml, listed as Ipriflavone (Ostivone)): 0 ± 4.3% and 2.8 ± 3.9% and 0 ± 2.5%
- % Change in Production/Release Levels (compared to untreated control) (RANK-L [4]; tested at 1 μg/ml): No effect
- BMP2 Promoter assay (ratio to control) (BMP-2 promoter; 0.05 μg/ml): 1.00 FOLD
- BMP2 Promoter assay (ratio to control) (BMP-2 promoter; 0.1 μg/ml): 0.90 FOLD
- BMP2 Promoter assay (ratio to control) (BMP-2 promoter; 0.2 μg/ml): 1.00 FOLD
- BMP2 Promoter assay (ratio to control) (BMP-2 promoter; 0.4 μg/ml): 0.90 FOLD
- BMP2 Promoter assay (ratio to control) (BMP-2 promoter; 0.8 μg/ml): 1.20 FOLD
- BMP2 Promoter assay (ratio to control) (BMP-2 promoter; 1.6 μg/ml): 1.50 FOLD
- BMP2 Promoter assay (ratio to control) (BMP-2 promoter; 3.2 μg/ml): 2.10 FOLD
- BMP2 Promoter assay (ratio to control) (BMP-2 promoter; 6.3 μg/ml): 2.90 FOLD
- BMP2 Promoter assay (ratio to control) (BMP-2 promoter; 12.5 μg/ml): 3.60 FOLD
- BMP2 Promoter assay (ratio to control) (BMP-2 promoter; 25 μg/ml): 3.90 FOLD
- BMP2 Promoter assay (ratio to control) (BMP-2 promoter; 50 μg/ml): 4.40 FOLD
- BMP2 Promoter assay (ratio to control) (BMP-2 promoter; 100 μg/ml): 4.50 FOLD
- Calvarial Assay Results- Bone formation (Neonatal murine calvaria; 1 μg/ml): 2.44 ± 0.66 mm^2 × 10^−3
- Calvarial Assay Results- Bone formation (Neonatal murine calvaria; 10 μg/ml): 6.05 ± 1.12 mm^2 × 10^−3
- Calvarial Assay Results- Bone formation (Neonatal murine calvaria; 100 μg/ml): 7.04 ± 0.69^a mm^2 × 10^−3
- BMP-2 Protein Expression (BMP-2 protein; 1 μg/ml): 2.4 FOLD
- BMP-2 Protein Expression (BMP-2 protein; 10 μg/ml): 1.8 FOLD
- BMP-2 Protein Expression (BMP-2 protein; 100 μg/ml): 1.8 FOLD
